From patent US11267794B2, “Benzothia(di)azepine compounds and their use as bile acid modulators” (Albireo AB, priority 2019, dated 2022)
Where two headings read alike, the source gives them in different places.

Legend:
Caco-2 cells [1] = experiment: Bidirectional permeability assay (Caco-2 cells); settings: FaSSIF buffer, 120 minutes at 37° C.; for Permeability (Caco-2) Papp A2B: absorptive direction (A2B); for Permeability (Caco-2) Papp B2A: secretory direction (B2A)
Experimental: (§3) Caco-2 cells (Evotec) were seeded at a density of 70,000 cells/well in Millicell® 24-well cell culture insert plates and maintained in an incubator (37° C., 5% CO2, 95% RH) for 21 days with media change on alternate days.
(§4) Stock solutions (10 mM) of the test compounds, atenolol (low permeability marker), propranolol (high permeability marker) and digoxin (substrate for P-gp transport pathway) were prepared in dimethylsulfoxide (DMSO). An intermediate stock solution (1 mM) was prepared by diluting 10 μL of 10 mM master stock solution with 90 μL of neat DMSO. A working stock solution (10 μM) was prepared by diluting 50 μL of 1 mM with 4950 μL of FaSSIF buffer. Post addition of compounds to the FaSSIF, samples were subjected to sonication for 2 hours, and centrifuged at 4000 RPM for 30 minutes at 37° C. The 4 mL of resultant supernatant was directly used in the assay. The final DMSO concentration in the transport experiments was 1%.
(§5) On the day of assay, Caco-2 monolayers were washed twice with transport buffer (HBSS, pH 7.4) and pre-incubated for 30 min (37° C., 5% CO2, 95% RH) in an incubator. The electrical resistance of the monolayers was measured with a Millicell®—ERS system. Monolayers with trans-epithelial electrical resistance (TEER) values greater than 350 ohm·cm^2 were selected for the assay.
(§6) The assay was conducted in absorptive direction (A2B) and secretory (B2A) directions. Transport experiments were initiated by addition of transport assay buffer (FaSSIF buffer prepared in HBSS) consisting of compounds to the donor compartment (apical chamber A-B; basolateral chamber B-A) in duplicate (n=2) wells. Drug free HBSS buffer (pH 7.4) containing 1% bovine serum albumin (BSA) was introduced to the receiver (A-B-basolateral; B-A-Apical) compartments. The volumes of apical and basolateral compartments were 0.4 and 0.8 mL, respectively. After adding dosing solution, plates were incubated in an incubator for 120 minutes at 37° C. After 120 minutes, donor and receiver samples were collected and matrix matched (1:1, 30 μL study sample+30 μL blank buffer) with the opposite buffer. Dosing samples matrix matched (1:1, 30 μL study sample+30 μL blank buffer) with the opposite buffer. Samples were processed by adding acetonitrile containing internal standard (60 μL study sample+200 μL acetonitrile containing internal standard—Tolbutamide, 500 ng/mL). Samples were vortexed and centrifuged at 4000 rpm for 10 minutes. The obtained supernatant (100 μL) was diluted with 100 μL of water and transferred to fresh 96 well plates. The concentration of compounds in the samples was analyzed by liquid chromatography tandem mass spectrometry (LC-MS/MS) method using discovery grade bio-analytical method, as applicable.
(§7) The mean apparent permeability (Papp, ×10^−6 cm/sec) of the test compounds, atenolol, propranolol and digoxin were calculated as follows:

hIBAT = target: T1, hIBAT (Homo sapiens, UniProt Q12908); experiment: IBAT (h/m) assay, 3H-taurocholic acid uptake in human IBAT-overexpressing cells; format: cell-based; settings: 0.25 μM 3H-taurocholic acid and 5 μM cold taurocholic acid, 20 minutes
T1 construct: expressed in transfected cells; kept under Puromycin selection
T1 sequence (Q12908 1-348): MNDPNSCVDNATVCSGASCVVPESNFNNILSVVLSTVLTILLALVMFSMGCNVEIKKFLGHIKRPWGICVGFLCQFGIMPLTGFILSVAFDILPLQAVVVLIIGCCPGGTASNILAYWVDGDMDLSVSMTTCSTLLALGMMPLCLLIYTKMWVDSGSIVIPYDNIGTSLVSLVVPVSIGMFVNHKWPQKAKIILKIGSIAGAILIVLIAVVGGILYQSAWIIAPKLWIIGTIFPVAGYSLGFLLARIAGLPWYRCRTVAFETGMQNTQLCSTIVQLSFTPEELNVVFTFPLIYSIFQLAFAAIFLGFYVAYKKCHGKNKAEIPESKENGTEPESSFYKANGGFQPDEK
Experimental: 10,000 cells (Human or Mouse IBAT-overexpressing cells) were seeded in 96-wells plate (Corning CLS3809) in 200 μL MEM-alpha medium (Gibco 12571-063) supplemented with 10% FBS (Gibco 10438026) containing Puromycin (Gibco A1113803) (10 μg/mL) and incubated at 37° C. in 5% CO2 for 48 hours. After incubation, media was decanted from the wells and cells were washed two times with 300 μL of basal MEM-alpha medium (FBS-free). After decanting basal MEM-alpha medium each time, plates were tapped against paper towel to ensure maximum removal of residual media. Test inhibitor dilutions (highest test concentration being 10 μM, 3-fold serial dilution, 10 points) prepared in DMSO (Sigma D2650) were added in incubation mix (maintaining 0.2% final DMSO concentration) containing 0.25 μM 3H-taurocholic acid (ARC ART-1368) and 5 μM of cold taurocholic acid (Sigma T4009). 50 μL of incubation mix containing test inhibitors was then added to the wells (in duplicate) and the plates were incubated for 20 minutes in a CO2 incubator at 37° C. After incubation, the reaction was stopped by keeping the plates on ice water mix for 2-3 minutes and then the incubation mix was aspirated completely from the wells. The wells were washed two times with 250 μL of chilled unlabelled 1 mM taurocholic acid dissolved in HEPES (Gibco 15630080)-buffered (10 mM) HBSS (Gibco 14175079) (pH 7.4). The plates were tapped against a paper towel after every wash to ensure maximum removal of blocking buffer.
(§1) 100 μL of MicroScint-20 (PerkinElmer 6013621) was added to the wells and kept overnight at room temperature before reading the plates in TopCount NXT™ Microplate Scintillation and Luminescence Counter from PerkinElmer under 3H Test protocol (set at 120 seconds reading time per well).
(§2) All test compounds were provided in powder form at room temperature. 10 mM DMSO stocks of the test compounds were prepared, aliquoted and stored at −20° C. From the 10 mM DMSO stock of the compounds, a 3-fold serial dilution in DMSO was prepared to get a total of 10 dilutions of the test compounds. 0.5 μL of this dilution in DMSO was added to 250 μL of FBS-free basal media containing 3H-taurocholic acid and cold taurocholic acid to prepare the incubation mixture.

hLBAT = target: T2, hLBAT (Homo sapiens, UniProt Q14973); experiment: LBAT (h/m) assay, 3H-taurocholic acid uptake in human LBAT-overexpressing cells; format: cell-based; settings: 0.3 μM 3H-taurocholic acid and 7.5 μM cold taurocholic acid, 20 minutes
T2 construct: expressed in transfected cells; kept under Geneticin selection
T2 sequence (Q14973 1-349): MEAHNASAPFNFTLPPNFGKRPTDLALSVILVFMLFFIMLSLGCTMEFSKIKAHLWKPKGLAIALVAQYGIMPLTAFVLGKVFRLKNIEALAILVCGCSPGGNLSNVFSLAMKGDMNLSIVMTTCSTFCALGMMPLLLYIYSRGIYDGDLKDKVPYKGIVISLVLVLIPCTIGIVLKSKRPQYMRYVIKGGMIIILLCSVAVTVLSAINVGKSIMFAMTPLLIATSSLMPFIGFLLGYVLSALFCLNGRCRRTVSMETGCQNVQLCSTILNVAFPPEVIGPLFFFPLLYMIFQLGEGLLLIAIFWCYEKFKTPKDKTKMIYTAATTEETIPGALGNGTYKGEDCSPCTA
Experimental: 20,000 cells (Human or Mouse LBAT-overexpressing cells) were seeded in 96-wells plate (Corning CLS3809) in 100 μL MEM-alpha medium (Gibco 12571-063) supplemented with 10% FBS (Gibco 10438026) containing Geneticin (Gibco 10131-027) (1 mg/mL) and incubated at 37° C. in 5% CO2 for 24 hours. After incubation, media was decanted from the wells and cells were washed two times with 300 μL of basal MEM-alpha medium (FBS-free). After decanting basal MEM-alpha medium each time, plates were tapped against paper towel to ensure maximum removal of residual media. For human LBAT, incubation mix was prepared by adding test inhibitor dilutions (3-fold serial dilution in DMSO (Sigma D2650), 10 points) in MEM-alpha (without FBS) containing 0.3 μM 3H-taurocholic acid (ARC ART-1368) and 7.5 μM cold taurocholic acid (Sigma T4009) (maintaining 0.2% final DMSO concentration). For mouse LBAT, incubation mix was prepared by adding test inhibitor dilutions (3-fold serial dilution in DMSO, 10 points) in MEM-alpha (without FBS) containing 0.3 μM 3H-taurocholic acid and 25 μM cold taurocholic acid maintaining 0.2% final DMSO concentration). 50 μL of incubation mix containing test inhibitors was then added to the wells (in duplicate) and the plates were incubated for 20 minutes in a CO2 incubator at 37° C. After incubation, the reaction was stopped by keeping the plates on ice water mix for 2-3 minutes and then the incubation mix was aspirated completely from the wells. The wells were washed two times with 250 μL of chilled unlabelled 1 mM taurocholic acid dissolved in HEPES (Gibco 15630080)-buffered (10 mM) HBSS (Gibco 14175079) (pH 7.4). The plates were tapped against a paper towel after every wash to ensure maximum removal of blocking buffer.
as §1, with “well, with normal plate orientation).” for “well).”
as §2

[2] = Bidirectional permeability assay (Caco-2 cells); settings: human, Caco-2
Experimental: as §3, §4, §5, §6, §7

[3] = set-up: species or system mice (CD1); settings: mouse, in vivo
Experimental: Male mice (C57BL/6 or CD1) or Wistar rats of 8-9 weeks old were used. For each test compound, two groups of 3 animals each were used. One group was administered a single intravenous dose of 1 mg/kg (vehicle 100% DMSO) through the tail vein and the other group was administered a single oral dose of 10 mg/kg through gavage needle. The group that was administered an oral dose was fasted overnight. Blood samples were collected after 0.083, 0.25, 0.5, 1, 2, 4, 6, 8 and 24 hours following intravenous administration, and after 0.25, 0.5, 1, 2, 4, 6, 8 and 24 hours following oral administration. Blood samples were taken from saphenous vein. 0.2% EDTA was used as the anticoagulant. The samples were analyzed by a discovery grade bioanalytical method developed for the estimation of test compound in plasma, using an LC-MS/MS system.

Caco-2 cells [4] = tested on: Caco-2 cells
Experimental: as §3, §4, §5, §6, §7

| Compound | Permeability (Caco-2) Papp A2B (Caco-2 cells [1]) [×10⁻⁶ cm/s] | Permeability (Caco-2) Papp B2A (Caco-2 cells [1]) [×10⁻⁶ cm/s] | IC50 (hIBAT) [nM] | IC50 (hLBAT) [nM] | Papp A→B at 120 min, 10 µM [2] [×10⁻⁶ cm/s] | Papp B→A at 120 min, 10 µM [2] [×10⁻⁶ cm/s] | Bioavailability (%) [3] | Permeability (Caco-2) Papp A2B (Caco-2 cells [4]) [×10⁻⁶ cm/s] | Permeability (Caco-2) Papp B2A (Caco-2 cells [4]) [×10⁻⁶ cm/s] |
| --- | --- | --- | --- | --- | --- | --- | --- | --- | --- |
| CCCC[C@@]1(CC)CN(c2ccccc2)c2cc(N(C)C)c(O/C=C/C(=O)O)cc2S(=O)(=O)N1.CCCC[C@]1(CC)CN(c2ccccc2)c2cc(N(C)C)c(O/C=C/C(=O)O)cc2S(=O)(=O)N1 (mixture of isomers) [Example 14, (S)-(E)-3-((3-butyl-7-(dimethylamino)-3-ethyl-1,1-dioxido-5-phenyl-2,3,4,5-tetrahydro-1,2,5-benzothiadiazepin-8-yl)oxy)acrylic acid and (R)-(E)-3-((3-butyl-7-(dimethylamino)-3-ethyl-1,1-dioxido-5-phenyl-2,3,4,5-tetrahydro-1,2,5-benzothiadiazepin-8-yl)oxy)acrylic acid] | 11 | 20 | 6 |  |  |  |  |  |  |
| CCCCC1(CC)CN(c2ccc(F)cc2)c2cc(SC)c(O/C=C(\F)C(=O)O)cc2S(=O)(=O)C1 (stereo not shown) [Example 5, (Z)-3-((3-butyl-3-ethyl-5-(4-fluorophenyl)-7-(methylthio)-1,1-dioxido-2,3,4,5-tetrahydro-1,5-benzothiazepin-8-yl)oxy)-2-fluoroacrylic acid] |  |  | 5 | 14 | 2.3 | 2 |  |  |  |
| CCCC1(CC)CN(c2ccccc2)c2cc(SC)c(O/C=C(\F)C(=O)O)cc2S(=O)(=O)C1 (stereo not shown) [Example 12, (Z)-3-((3-ethyl-7-(methylthio)-1,1-dioxido-5-phenyl-3-propyl-2,3,4,5-tetrahydrobenzo-1,5-thiazepin-8-yl)oxy)-2-fluoroacrylic acid] |  |  | 156 | 12 | 3.8 | 4.1 |  |  |  |
| CCCCC1(CC)CN(c2ccccc2)c2cc(N(C)C)c(O/C=C/C(=O)O)cc2S(=O)(=O)N1 (stereo not shown) [Example 13, (E)-3-((3-butyl-7-(dimethylamino)-3-ethyl-1,1-dioxido-5-phenyl-2,3,4,5-tetrahydro-1,2,5-benzothiadiazepin-8-yl)oxy)acrylic acid] |  |  | 13 | 1860 | 22 | 18 |  |  |  |
| (S)-(E)-3-((3-butyl-3-ethyl-5-(4-fluorophenyl)-7-(methylthio)-1,1-dioxido-2,3,4,5-tetrahydro-1,5-benzothiazepin-8-yl)oxy)acrylic acid and (R)-(E)-3-((3-butyl-3-ethyl-5-(4-fluorophenyl)-7-(methylthio)-1,1-dioxido-2,3,4,5 tetrahydro-1,5-benzothiazepin-8-yl)oxy)acrylic acid [Example 10] |  |  | 4 | 113 |  |  | 41 (CD1) % | 10 | 5.4 |
| (S)—(Z)-3-((3-butyl-3-ethyl-5-(4-fluorophenyl)-7-(methylthio)-1,1-dioxido-2,3,4,5-tetrahydro-1,5-benzothiazepin-8-yl)oxy)-2-fluoroacrylic acid and (R)—(Z)-3-((3-butyl-3-ethyl-5-(4-fluorophenyl)-7-(methylthio)-1,1-dioxido-2,3,4,5-tetrahydro-1,5-benzothiazepin-8-yl)oxy)-2-fluoroacrylic acid [Example 7] | 5.7 | 4.1 | 5 | 14 |  |  |  |  |  |
| (S)—(Z)-3-((3-butyl-7-(dimethylamino)-3-ethyl-1,1-dioxido-5-phenyl-2,3,4,5-tetrahydro-1,2,5-benzothiadiazepin-8-yl)oxy)-2-fluoroacrylic acid and (R)—(Z)-3-((3-butyl-7-(dimethylamino)-3-ethyl-1,1-dioxido-5-phenyl-2,3,4,5-tetrahydro-1,2,5-benzothiadiazepin-8-yl)oxy)-2-fluoroacrylic acid [Example 3] | 1.8 | 2.2 | 8 | 427 |  |  |  |  |  |
